Measured values taken from PubChem BioAssay AID1259411 (Chemical Carcinogenesis Research Information System (CCRIS), 2018).
Active and inactive are the calls of the source. No rule for the calls is given here.

Tested on: rodent carcinogenicity bioassays, tumor incidence
Test: CCRIS carcinogenicity studies
Summary of the method: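 Archive of carcinogenicity, mutagenicity, tumor promotion and tumor inhibition results drawn from journals, NCI reports and other sources, expert-reviewed; covers 1985-2011 and is no longer updated.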

With `CCOC(N)=O` the carcinogen call (Species: MOUSE, Strain/Sex: ICR/FEMALE, Route: INHALATION, Dose: 0, 0.25 UG/ML AIR FOR 5 D (TOTAL DOSE 1.25 UG/ML/D) (STUDY DURATION: 5 MO), Tumor Site: Type of Lesion: LUNG: TUMOR, HEMATOPOIETIC SYSTEM: LEUKEMIA) was “active; positive”, the carcinogen call (Species: MOUSE, Strain/Sex: ICR/FEMALE, Route: INHALATION, Dose: 0, 0.25 UG/ML AIR FOR 10 D (TOTAL DOSE 2.5 UG/ML/D) (STUDY DURATION: 5 MO), Tumor Site: Type of Lesion: LUNG: TUMOR) was “active; positive” and the carcinogen call (Species: MOUSE, Strain/Sex: ICR/FEMALE, Route: INHALATION, Dose: 0, 1.29 UG/ML AIR FOR 0.25 D (TOTAL DOSE 0.32 UG/ML/D) (STUDY DURATION: 5 MO), Tumor Site: Type of Lesion: LUNG: TUMOR, HEMATOPOIETIC SYSTEM: LEUKEMIA) was “active; positive”. The carcinogen call (Species: MOUSE, Strain/Sex: ICR/FEMALE, Route: INHALATION, Dose: 0, 1.29 UG/ML AIR FOR 1 D (TOTAL DOSE 1.29 UG/ML/D) (STUDY DURATION; 5 MO), Dose: 0, 1.29 UG/ML AIR FOR 1 D (TOTAL DOSE 1.29 UG/ML/D) (STUDY DURATION; 5 MO), Tumor Site: Type of Lesion: LUNG: TUMOR, HEMATOPOIETIC SYSTEM: LEUKEMIA) was “active; positive”, the carcinogen call (Species: MOUSE, Strain/Sex: ICR/FEMALE, Route: INHALATION, Dose: 0, 1.29 UG/ML AIR FOR 2 D (TOTAL DOSE 2.58 UG/ML/D) (STUDY DURATION: 5 MO), Tumor Site: Type of Lesion: LUNG: TUMOR, HEMATOPOIETIC SYSTEM: LEUKEMIA) was “active; positive” and the carcinogen call (Species: MOUSE, Strain/Sex: ICR/FEMALE, Route: INHALATION, Dose: 0, 1.29 UG/ML AIR FOR 4 D (TOTAL DOSE 5.16 UG/ML/D) (STUDY DURATION: 5 MO), Tumor Site: Type of Lesion: LUNG: TUMOR, HEMATOPOIETIC SYSTEM: LEUKEMIA) was “active; positive”. For the same molecule, the carcinogen call (Species: MOUSE, Strain/Sex: ICR/FEMALE, Route: INHALATION, Dose: 0, 1.29 UG/ML AIR FOR 5 D (TOTAL DOSE 6.45 UG/ML/D) (STUDY DURATION: 5 MO), Tumor Site: Type of Lesion: LUNG: TUMOR, HEMATOPOIETIC SYSTEM: LEUKEMIA) was “active; positive”, the carcinogen call (Species: MOUSE, Strain/Sex: ICR/MALE, Route: INHALATION, Dose: 0, 0.25 UG/ML AIR FOR 10 D (TOTAL DOSE 2.5 UG/ML/D) (STUDY DURATION: 12 MO), Tumor Site: Type of Lesion: LUNG: ADENOCARCINOMA, HEMATOPOIETIC SYSTEM: LEUKEMIA, LIVER: HEPATOMA, Tumor Site: Type of Lesion: LUNG: ADENOCARCINOMA, HEMATOPOIETIC SYSTEM: LEUKEMIA, LIVER: HEPATOMA) was “active; positive” and the carcinogen call (Species: MOUSE, Strain/Sex: ICR/MALE, Route: INHALATION, Dose: 0, 1.29 UG/ML AIR FOR 4 D (TOTAL DOSE 5.16 UG/ML/D) (STUDY DURATION: 12 MO), Tumor Site: Type of Lesion: LUNG: ADENOCARCINOMA, HEMATOPOIETIC SYSTEM: LEUKEMIA, LIVER: HEPATOMA, Tumor Site: Type of Lesion: LUNG: ADENOCARCINOMA, HEMATOPOIETIC SYSTEM: LEUKEMIA, LIVER: HEPATOMA) was “active; positive”. For the same molecule, the carcinogen call (Species: MOUSE, Strain/Sex: STRAIN-A/MALE, Route: INTRAPERITONEAL, Dose: 0, 1.12, 4.6 MMOL/KG IN ISOTONIC SALINE ONCE AT 6 WK OF AGE (STUDY DURATION: 16 WK), Dose: 0, 1.12, 4.6 MMOL/KG IN ISOTONIC SALINE ONCE AT 6 WK OF AGE (STUDY DURATION: 16 WK), Tumor Site: Type of Lesion: LUNG: ADENOMA) was “active; positive”, the carcinogen call (Species: MOUSE, Strain/Sex: SWISS WEBSTER/FEMALE, Route: INTRAVENOUS, Dose: 0, 3.3 MMOL ONCE ADMINISTERED TO VIRGIN FEMALES AT 12 WK OF AGE (STUDY DURATION: 6 MO), Tumor Site: Type of Lesion: LUNG: ADENOMA) was “active; positive” and the carcinogen call (Species: MOUSE, Strain/Sex: SWISS WEBSTER/FEMALE, Route: INTRAVENOUS, Dose: 0, 3.3 MMOL/KG ONCE ADMINISTERED TO MOTHERS ON GESTATIONAL DAY 14 (STUDY DURATION: 6 MO), Tumor Site: Type of Lesion: LUNG: ADENOMA) was “active; positive”. For the same molecule, the carcinogen call (Species: MOUSE, Strain/Sex: SWISS WEBSTER/FEMALE, Route: TRANSPLACENTAL, Dose: 0, 3.3 MMOL/KG ONCE BY INTRAVENOUS ADMINISTRATION TO MOTHERS ON GESTATIONAL DAY 14 (STUDY DURATION: 6 MO), Tumor Site: Type of Lesion: LUNG: ADENOMA) was “active; positive”, the carcinogen call (Species: MOUSE, Strain/Sex: SWISS WEBSTER/MALE, Route: TRANSPLACENTAL, Dose: 0, 3.3 MMOL/KG ONCE BY INTRAVENOUS ADMINISTRATION TO MOTHERS ON GESTATIONAL DAY 14 (STUDY DURATION: 6 Mo), Tumor Site: Type of Lesion: LUNG: ADENOMA) was “active; positive” and the carcinogen call (Species: MOUSE, Strain/Sex: SWISS/MALE,FEMALE, Route: ORAL, Dose: 0, 0.4% IN DRINKING WATER, 2 10-D TREATMENTS, Dose: 0, 0.4% IN DRINKING WATER, 2 10-D TREATMENTS, Tumor Site: Type of Lesion: LUNG: ADENOMA, LYMPHOMA, LIVER: HEMANGIOMA, INTEGUMENTARY SYSTEM (SKIN): PAPILLOMA, SEBACEOUS CARCINOMA, Tumor Site: Type of Lesion: LUNG: ADENOMA, LYMPHOMA, LIVER: HEMANGIOMA, INTEGUMENTARY SYSTEM (SKIN): PAPILLOMA, SEBACEOUS CARCINOMA) was “active; positive”. The carcinogen call (Species: Mouse, Strain/Sex: 129 x MF1 Gstp-null (12-16 males and females), Route: Intraperitoneal, Dose: 10 mg/kg, once, study duration 5 mo, Tumor Site: Type of Lesion: Lung: adenoma (incidence 92% vs 27% in controls, multiplicity 3.8 vs 0.3 in controls)) was “inactive; negative”, the carcinogen call (Species: Mouse, Strain/Sex: 129 x MF1 wild type (14-16 males and females), Route: Intraperitoneal, Dose: 10 mg/kg, once, study duration 5 mo, Tumor Site: Type of Lesion: Lung: adenoma (incidence 29% vs 25% in controls, multiplicity 0.4 vs 0.3 in controls)) was “inactive; negative” and the carcinogen call (Species: RAT, Route: INTRAPERITONEAL, ORAL, Tumor Site: Type of Lesion: LIVER) was “active; positive”. The carcinogen call (Species: RAT, Route: INTRAPERITONEAL, Tumor Site: Type of Lesion: LIVER, NERVOUS SYSTEM) was “active; positive” and the carcinogen call (Species: RAT, Route: SUBCUTANEOUS, Tumor Site: Type of Lesion: EYE (IRIS)) was “active; positive”.
